Source: patent publication US20100267637A1, “TREATMENT OF MELANOMA WITH ALPHA THYMOSIN PEPTIDES IN COMBINATION WITH A KINASE INHIBITOR” (SciClone Pharmaceuticals, Inc., priority 2007, published 2010)

Key:
[1] = tested on: murine B16 melanoma cells; assay: Anti-tumor effect: tumor weight at necropsy (Day 16) in mice bearing subcutaneous B16 melanoma; assay type: in vivo, C57BL/6 mice
Procedure: (§1) The toxic effects of the dosing regimens were also monitored. […] Meanwhile 9H10 was given in two groups via i.p. on Day 3, 6 and 9. […] Tumor volume and body weight were measured every three days, and tumor weights were measured on Day 16 at the end of the study.
On the day of tumor implantation, approximately 1×10^6 cells in 0.1 mL were subcutaneously injected on the right axillary area of each mouse. The day of tumor implantation was defined as Day 0.
(§2) On Day 3, the animals were randomly assigned into nine different weight-matched and tumor-size-matched groups. Dosing was started on Day 3 using the regimen according to Table 2.
(§3) From Day 1 to Day 15, mortality and moribundity were checked twice daily, the body weights were recorded once every 3 days, and tumors were measured using a caliper once every 3 days. At the end of the study (Day 16), the animals were euthanized by CO2 asphyxiation, and the tumors were excised and weighed.
The anti-tumor effect of the test article was further evaluated with tumor weight (TW) measured on day of necropsy (Day 16). The PI of TW was calculated using the equation below:
PITW(%)=100×(TW vehicle−TW drug treated)/TW vehicle
(§4) Inter-group comparison was performed in terms of tumor volume, tumor weight and body weight, using a student's t test. P values of less than 0.05 were considered to be statistically significant.

[2] = Treatment toxicity: body weight and drug-induced animal deaths in B16 melanoma-bearing mice; assay type: in vivo, C57BL/6 mice
Procedure: as §1, §2, §3
Toxicity of all treatment regimens was evaluated with the body weights of the study animals along with the drug-induced animal deaths. The inhibition of body weight was calculated using Excel according to the equation below:
PIBW(%)=100×(BW vehicle−BW drug treated)/BW vehicle
as §4

What does the source list for `CNC(=O)c1cc(Oc2ccc(NC(=O)Nc3ccc(Cl)c(C(F)(F)F)c3)cc2)ccn1` [Sorafenib]?
Tumor weight on Day 16 ([1]; animal F1): 0.23 g; Tumor weight on Day 16 ([1]; animal F2): 0.16 g; Tumor weight on Day 16 ([1]; animal F3): 0.32 g; Tumor weight on Day 16 ([1]; animal F4): 0.30 g; Tumor weight on Day 16 ([1]; animal F5): 0.16 g; Tumor weight on Day 16 ([1]; animal M1): 0.10 g; Tumor weight on Day 16 ([1]; animal M2): 0.38 g; Tumor weight on Day 16 ([1]; animal M3): 0.20 g; Tumor weight on Day 16 ([1]; animal M4): 0.25 g; Tumor weight on Day 16 ([1]; animal M5): 0.32 g; Tumor Weight (g) (Mean ± SD) ([1]; group mean): 0.24 ± 0.088 g; percent inhibition of tumor weight vs vehicle ([1]; vs vehicle): 85.76%; Body Weight (g) (Mean ± SD) ([2]; Day 0 (tumor implantation, before dosing)): 21.02 ± 0.834 g; Percent inhibition of body weight vs vehicle (PIBW) ([2]; Day 0): −0.9121%; Percent inhibition of body weight vs vehicle (PIBW) ([2]; Day 3): 0.0000%; Body Weight (g) (Mean ± SD) ([2]; Day 6): 20.74 ± 1.023 g; Percent inhibition of body weight vs vehicle (PIBW) ([2]; Day 6): −1.6667%; Body Weight (g) (Mean ± SD) ([2]; Day 9): 19.75 ± 1.307 g; Body weights on Day 9 ([2]; Day 9, animal F1): 18.60 g; Body weights on Day 9 ([2]; Day 9, animal F2): 18.40 g; Body weights on Day 9 ([2]; Day 9, animal F3): 18.40 g; Body weights on Day 9 ([2]; Day 9, animal F4): 18.60 g; Body weights on Day 9 ([2]; Day 9, animal F5): 19.80 g; Body weights on Day 9 ([2]; Day 9, animal M1): 20.80 g; Body weights on Day 9 ([2]; Day 9, animal M2): 22.10 g; Body weights on Day 9 ([2]; Day 9, animal M3): 20.40 g; Body weights on Day 9 ([2]; Day 9, animal M4): 21.10 g; Body weights on Day 9 ([2]; Day 9, animal M5): 19.30 g; Percent inhibition of body weight vs vehicle (PIBW) ([2]; Day 9): 3.2337%; Body Weight (g) (Mean ± SD) ([2]; Day 12): 20.09 ± 1.534 g; Body weights on Day 12 ([2]; Day 12, animal F1): 19.00 g; Body weights on Day 12 ([2]; Day 12, animal F2): 17.20 g; Body weights on Day 12 ([2]; Day 12, animal F3): 20.80 g; Body weights on Day 12 ([2]; Day 12, animal F4): 18.30 g; Body weights on Day 12 ([2]; Day 12, animal F5): 20.30 g; Body weights on Day 12 ([2]; Day 12, animal M1): 22.10 g; Body weights on Day 12 ([2]; Day 12, animal M2): 21.40 g; Body weights on Day 12 ([2]; Day 12, animal M3): 20.40 g; Body weights on Day 12 ([2]; Day 12, animal M4): 21.50 g; Body weights on Day 12 ([2]; Day 12, animal M5): 19.90 g; Percent inhibition of body weight vs vehicle (PIBW) ([2]; Day 12): 8.2229%; Percent inhibition of body weight vs vehicle (PIBW) ([2]; Day 12, listed as Sorafenib alone): 8.22%; Body Weight (g) (Mean ± SD) ([2]; Day 15): 21.41 ± 1.919 g; Body weights on Day 15 ([2]; Day 15, animal F1): 20.70 g; Body weights on Day 15 ([2]; Day 15, animal F2): 17.50 g; Body weights on Day 15 ([2]; Day 15, animal F3): 21.10 g; Body weights on Day 15 ([2]; Day 15, animal F4): 19.90 g; Body weights on Day 15 ([2]; Day 15, animal F5): 21.50 g; Body weights on Day 15 ([2]; Day 15, animal M1): 23.90 g; Body weights on Day 15 ([2]; Day 15, animal M2): 23.80 g; Body weights on Day 15 ([2]; Day 15, animal M3): 22.20 g; Body weights on Day 15 ([2]; Day 15, animal M4): 22.80 g; Body weights on Day 15 ([2]; Day 15, animal M5): 20.70 g; Percent inhibition of body weight vs vehicle (PIBW) ([2]; Day 15): 3.2972%
